# Columns and labels:
# [1] = biological target: T1, human CTPS1 (Homo sapiens, UniProt P17812); assay: Human CTPS1 enzyme inhibition, ADP-Glo Max assay; assay type: biochemical; settings: human full length CTPS1, read-out: CTPS1 (Human CTPS1 Enzyme Inhibition data grouped by potency range, IC50)
# T1 construct: purchased Proteros biostructures GmbH
# T1 sequence (P17812 1-591): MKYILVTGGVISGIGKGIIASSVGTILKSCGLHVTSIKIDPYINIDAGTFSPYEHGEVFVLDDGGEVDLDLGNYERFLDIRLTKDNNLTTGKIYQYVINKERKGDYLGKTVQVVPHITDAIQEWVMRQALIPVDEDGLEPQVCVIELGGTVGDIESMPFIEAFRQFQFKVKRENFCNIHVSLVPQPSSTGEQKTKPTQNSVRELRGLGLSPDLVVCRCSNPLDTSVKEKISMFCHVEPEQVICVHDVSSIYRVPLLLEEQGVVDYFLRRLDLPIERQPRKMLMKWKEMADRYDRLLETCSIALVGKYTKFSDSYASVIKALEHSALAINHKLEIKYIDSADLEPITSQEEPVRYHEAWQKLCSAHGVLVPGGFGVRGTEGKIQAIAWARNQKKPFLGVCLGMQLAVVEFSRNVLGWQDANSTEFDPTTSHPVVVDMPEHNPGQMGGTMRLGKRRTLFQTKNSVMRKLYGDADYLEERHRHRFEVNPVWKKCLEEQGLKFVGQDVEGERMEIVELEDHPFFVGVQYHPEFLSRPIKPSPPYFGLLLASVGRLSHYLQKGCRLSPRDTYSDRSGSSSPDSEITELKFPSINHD
# Outline: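 Full-length C-terminal FLAG-His-tagged protein in 50 mM Tris pH 8.0, 10 mM MgCl2, 0.01% Tween-20 and 2 mM L-cysteine, preincubated with compound for 10 min at 25 °C. The substrate mix held ATP 0.31 mM, GTP 0.034 mM, UTP 0.48 mM and L-glutamine 0.186 mM, and the reaction ran within its linear phase. ADP was read by ADP-Glo Max luminescence; IC50 from the % inhibition curve.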
# [2] = biological target: T1, human CTPS1; assay: RapidFire/MS-based enzyme selectivity assay, human CTPS1; assay type: biochemical; settings: RapidFire/MS IC50s, human CTPS1 versus CTPS2
# Description: Biological Example 2—RapidFire/MS-Based Enzyme Selectivity Assays
# Human CTPS1 Versus CTPS2 Selectivity Assessment by RapidFire/MS Analysis.
# The enzyme inhibitory activities against each target isoform of interest were determined for the compounds of the invention using an optimised RapidFire high-throughput mass spectrometry (RF/MS) assay format. RF/MS assays for both human CTPS1 and CTPS2 were performed in assay buffer consisting of 50 mM HEPES (Merck), 20 mM MgCl2, 5 mM KCl, 1 mM DTT, 0.01% Tween-20, pH to 8.0 accordingly. All reagents were from Sigma-Aldrich unless specified otherwise. Human full-length active C-terminal FLAG-His-tag CTPS1 (UniProtKB-P17812, CTPS[1-591]-[…]) was obtained from Proteros biostructures GmbH. Human full length active C-terminal FLAG-His-Avi tagged CTPS2 (UniProtKB-Q9NRF8, CTPS2 [1-586]-[…]) was obtained from Harker Bio.
# Human CTPS (1 or 2) protein was prepared in 1× assay buffer to the final working protein concentration required for the reaction. A 2 uL volume per well of 2×CTPS (1 or 2) protein was mixed with 40 nL of compound using acoustic (ECHO) delivery and incubated for 10 minutes at 25° C. Each isoform enzymatic reaction was subsequently initiated by addition of 2 uL per well of a 2× substrate mix in assay buffer. For hCTPS1: ATP (0.3 mM), UTP (0.2 mM), GTP (0.07 mM) and L-glutamine (0.1 mM). For hCTPS2: ATP (0.1 mM), UTP (0.04 mM), GTP (0.03 mM) and L-glutamine (0.1 mM). Each mixture was incubated for an appropriate amount of time per isoform within the determined linear phase of the reaction at 25° C. A 60 uL volume of stop solution (1% formic acid with 0.5 uM ^13C9-^15N3-CTP in H2O) was added and the plate immediately heat-sealed and centrifuged for 10 minutes at 4,000 rpm. Following centrifugation, plates were loaded onto the Agilent RapidFire microfluidic solid phase extraction system coupled to an API4000 triple quadrupole mass spectrometer (RF/MS) for analysis.
# In all cases, the enzyme converts UTP to CTP. […] Readout for data analysis was calculated as the ratio between the peak area of the product CTP and the internal standard ^13C9-^15N3-CTP. […]
# (R=ratio/readout, P=product signal area, IS=internal standard signal area) […]
# (I=Inhibition, Rneg=median of negative control readout values, Rpos=median of positive control readout values, Rsample=sample readout value)
# Percentage inhibition was then plotted against compound concentration, and the 50% inhibitory concentration ([…]) was determined from the resultant concentration-response curve.
# Fold selectivity between CTPS1 and CTPS2 was subsequently calculated according to the following equation: […]
Structure (SMILES),IC50 [1] [µM],Selectivity (fold selectivity between CTPS1 and CTPS2) [2]
"CCOc1cncc(-c2ccc(C(=O)NC(CC)c3csc(NS(=O)(=O)C4CC4)n3)c(F)c2)n1 (single isomer, unassigned) [Example R71, N-(1-(2-(cyclopropanesulfonamido)thiazol-4-yl)propyl)-4-(6-ethoxypyrazin-2-yl)-2-fluorobenzamide]",< 0.1,+++ (>60 fold (+++))
"CCOc1cncc(-c2ccc(C(=O)NC(CCOC)c3csc(NS(=O)(=O)C4CC4)n3)c(F)c2)n1 (single isomer, unassigned) [Example R92, N-(1-(2-(cyclopropanesulfonamido)thiazol-4-yl)-3-methoxypropyl)-4-(6-ethoxypyrazin-2-yl)-2-fluorobenzamide]",< 0.1,+++ (>60 fold (+++))
"CCOc1cncc(-c2ccc(C(=O)NC(CCOC)c3csc(NS(=O)(=O)C4CC4)n3)c(F)c2)n1 (single isomer, unassigned) [Example R93, N-(1-(2-(cyclopropanesulfonamido)thiazol-4-yl)-3-methoxypropyl)-4-(6-ethoxypyrazin-2-yl)-2-fluorobenzamide]",–,+++ (>60 fold (+++))
"CCOc1cncc(-c2ccc(C(=O)NC(C)(C)c3csc(NS(=O)(=O)C4CC4)n3)c(F)c2)n1 [Example R6, N-(2-(2-(cyclopropanesulfonamido)thiazol-4-yl)propan-2-yl)-4-(6-ethoxypyrazin-2-yl)-2-fluorobenzamide]",< 0.1,++ (>30-60 fold (++))
"Cc1cc(-c2cncc(C(F)(F)F)n2)ccc1C(=O)NC1(c2csc(NS(=O)(=O)C3CC3)n2)CC1 [Example R83, N-(1-(2-(cyclopropanesulfonamido)thiazol-4-yl)cyclopropyl)-2-methyl-4-(6-(trifluoromethyl)pyrazin-2-yl)benzamide]",< 0.1,–
"O=C(NC1(c2csc(NS(=O)(=O)C3CC3)n2)CC1)c1ccc(-c2cncc(C(F)(F)F)n2)cc1 [Example R84, N-(1-(2-(cyclopropanesulfonamido)thiazol-4-yl)cyclopropyl)-4-(6-(trifluoromethyl)pyrazin-2-yl)benzamide]",< 0.1,–
"COCCC(NC(=O)c1ccc(-c2cncc(F)c2)cc1)c1csc(NS(=O)(=O)C2CC2)n1 (stereo not shown) [Example R85, N-(1-(2-(cyclopropanesulfonamido)thiazol-4-yl)-3-methoxypropyl)-4-(5-fluoropyridin-3-yl)benzamide]",0.1 to 1,–
"CCc1cncc(-c2ccc(C(=O)NC(CCOC)c3csc(NS(=O)(=O)C4CC4)n3)c(F)c2)n1 (stereo not shown) [Example R86, N-(1-(2-(cyclopropanesulfonamido)thiazol-4-yl)-3-methoxypropyl)-4-(6-ethylpyrazin-2-yl)-2-fluorobenzamide]",0.1 to 1,–
"COCCC(NC(=O)c1ccc(-c2cncc(C(F)(F)F)n2)cc1F)c1csc(NS(=O)(=O)C2CC2)n1 (stereo not shown) [Example R87, N-(1-(2-(cyclopropanesulfonamido)thiazol-4-yl)-3-methoxypropyl)-2-fluoro-4-(6-(trifluoromethyl)pyrazin-2-yl)benzamide]",0.1 to 1,–
"CCOc1cncc(-c2ccc(C(=O)NC(CCOC)c3csc(NS(=O)(=O)C4CC4)n3)c(F)c2)n1 (stereo not shown) [Example R88, N-(1-(2-(cyclopropanesulfonamido)thiazol-4-yl)-3-methoxypropyl)-4-(6-ethoxypyrazin-2-yl)-2-fluorobenzamide]",0.1 to 1,–
"COCCC(NC(=O)c1ccc(-c2cncc(OC(C)C)n2)cc1F)c1csc(NS(=O)(=O)C2CC2)n1 (stereo not shown) [Example R89, N-(1-(2-(cyclopropanesulfonamido)thiazol-4-yl)-3-methoxypropyl)-2-fluoro-4-(6-isopropoxypyrazin-2-yl)benzamide]",< 0.1,–
"CCOc1cncc(-c2ccc(C(=O)NC(CCOC)c3csc(NS(=O)(=O)C4CC4)n3)cc2)n1 (stereo not shown) [Example R90, N-(1-(2-(cyclopropanesulfonamido)thiazol-4-yl)-3-methoxypropyl)-4-(6-ethoxypyrazin-2-yl)benzamide]",< 0.1,–
"CCOc1cncc(-c2ccc(C(=O)NC(C)c3csc(NS(=O)(=O)C4CC4)n3)c(F)c2)n1 (stereo not shown) [Example R91, N-(1-(2-(cyclopropanesulfonamido)thiazol-4-yl)ethyl)-4-(6-ethoxypyrazin-2-yl)-2-fluorobenzamide]",< 0.1,–

# — patent US11505547B2, “Compounds” (STEP PHARMA S.A.S., priority 2017, dated 2022)
